Four compounds from article PMC9661397 (Circulation, 2020) can be followed below.

One data set deals with C57BL/6J mice. Description: In vivo electrophysiology study, AF induced by burst pacing. To be noted: for AF inducibility: 25 mg·kg−1·d−1 IP for 4 weeks (28 days). The arrangement: species or system mouse.
For the next data set, the target named is BTK (Mus musculus, UniProt P35991). Description: KiNativ chemoproteomic kinase profiling in mouse heart lysate. To be noted: read-out: % inhibition of BTK. The format is binding.
For another data set, the target named is RIPK3 (Mus musculus, UniProt Q9QZL0). The description is as above. The format is binding. Conditions: read-out: % inhibition of RIPK3.
Another data set deals with CSK (Mus musculus, UniProt P41241). The data set is described as above. It counts as binding.
The test system of a further data set is mice. Description: Echocardiography and cardiac MRI of cardiac structure. It counts as in vivo, mouse.
The subject of data set [1] is Fn1, Col1a1, and Col3a1 mRNA. The data set is described as follows: Quantitative real-time PCR of fibrosis markers in LA tissue. The format is in vivo, mouse. Conditions: 25 mg/kg daily for 4 weeks, C57BL/6J mice.
In another data set the target is FYN (Mus musculus, UniProt P39688). Description: KiNativ chemoproteomic kinase profiling in mouse heart lysate. To be noted: read-out: % inhibition of FYN. The format is binding.
Another data set has as its system IL-6. Description: Plasma cytokine measurement. It counts as in vivo, mouse. Conditions: 25 mg/kg daily for 4 weeks, C57BL/6J mice, vs vehicle.
A further data set deals with BTK^xid mice. Conditions: 25 mg·kg−1·d−1 IP for 4 weeks, vs vehicle.
The target of a further data set is T1, MEK5 (Mus musculus, UniProt Q9WVS7).
T1 sequence (Q9WVS7 1-448): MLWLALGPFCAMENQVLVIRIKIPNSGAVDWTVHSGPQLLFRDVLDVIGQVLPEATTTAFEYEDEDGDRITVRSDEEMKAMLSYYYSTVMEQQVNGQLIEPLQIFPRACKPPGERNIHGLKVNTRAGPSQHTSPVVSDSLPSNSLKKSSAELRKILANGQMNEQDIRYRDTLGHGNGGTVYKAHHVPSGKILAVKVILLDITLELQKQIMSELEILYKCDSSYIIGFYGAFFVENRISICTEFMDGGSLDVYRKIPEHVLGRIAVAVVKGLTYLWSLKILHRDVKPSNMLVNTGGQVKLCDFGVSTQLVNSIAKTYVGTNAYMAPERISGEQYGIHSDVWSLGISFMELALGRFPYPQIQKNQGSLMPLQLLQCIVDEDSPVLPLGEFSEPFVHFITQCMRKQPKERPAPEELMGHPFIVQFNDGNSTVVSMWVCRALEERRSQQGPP
Description: KiNativ chemoproteomic kinase profiling in mouse heart lysate. To be noted: read-out: % inhibition of MEK5. It counts as binding.

The next data set has as its system TNFα. Description: Plasma cytokine measurement. It counts as in vivo, mouse. To be noted: 25 mg/kg daily for 4 weeks, C57BL/6J mice, vs vehicle.
Setting [2] is: 25 mg/kg daily for 4 weeks, C57BL/6J mice, vs vehicle.

Sequence of CSK (P41241 whole entry): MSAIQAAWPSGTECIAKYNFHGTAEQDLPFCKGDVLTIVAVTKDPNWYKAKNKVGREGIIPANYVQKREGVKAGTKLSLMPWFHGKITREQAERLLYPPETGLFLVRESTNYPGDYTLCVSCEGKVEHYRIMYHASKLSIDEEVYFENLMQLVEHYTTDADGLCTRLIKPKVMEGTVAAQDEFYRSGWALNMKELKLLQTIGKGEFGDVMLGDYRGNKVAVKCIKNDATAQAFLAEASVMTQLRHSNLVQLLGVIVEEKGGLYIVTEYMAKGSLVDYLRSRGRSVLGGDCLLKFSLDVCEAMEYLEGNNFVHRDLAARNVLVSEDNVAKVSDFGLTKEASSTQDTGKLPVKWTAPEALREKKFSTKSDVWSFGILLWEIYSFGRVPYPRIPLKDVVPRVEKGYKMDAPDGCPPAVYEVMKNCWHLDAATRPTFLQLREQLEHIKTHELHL
Sequence of RIPK3 (Q9QZL0 whole entry): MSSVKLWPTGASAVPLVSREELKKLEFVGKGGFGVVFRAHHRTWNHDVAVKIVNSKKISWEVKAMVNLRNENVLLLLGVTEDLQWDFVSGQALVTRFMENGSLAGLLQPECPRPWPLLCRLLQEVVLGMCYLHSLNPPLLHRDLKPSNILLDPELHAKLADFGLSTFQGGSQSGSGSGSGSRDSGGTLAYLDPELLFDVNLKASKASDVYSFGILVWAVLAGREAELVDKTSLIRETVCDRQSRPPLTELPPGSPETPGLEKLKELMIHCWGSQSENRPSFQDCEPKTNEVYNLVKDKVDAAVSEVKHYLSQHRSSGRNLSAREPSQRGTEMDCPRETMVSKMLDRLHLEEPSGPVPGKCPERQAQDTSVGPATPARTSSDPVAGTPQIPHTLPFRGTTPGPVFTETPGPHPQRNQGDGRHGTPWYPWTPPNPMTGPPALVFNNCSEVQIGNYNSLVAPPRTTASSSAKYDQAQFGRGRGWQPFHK
Sequence of BTK (P35991 whole entry): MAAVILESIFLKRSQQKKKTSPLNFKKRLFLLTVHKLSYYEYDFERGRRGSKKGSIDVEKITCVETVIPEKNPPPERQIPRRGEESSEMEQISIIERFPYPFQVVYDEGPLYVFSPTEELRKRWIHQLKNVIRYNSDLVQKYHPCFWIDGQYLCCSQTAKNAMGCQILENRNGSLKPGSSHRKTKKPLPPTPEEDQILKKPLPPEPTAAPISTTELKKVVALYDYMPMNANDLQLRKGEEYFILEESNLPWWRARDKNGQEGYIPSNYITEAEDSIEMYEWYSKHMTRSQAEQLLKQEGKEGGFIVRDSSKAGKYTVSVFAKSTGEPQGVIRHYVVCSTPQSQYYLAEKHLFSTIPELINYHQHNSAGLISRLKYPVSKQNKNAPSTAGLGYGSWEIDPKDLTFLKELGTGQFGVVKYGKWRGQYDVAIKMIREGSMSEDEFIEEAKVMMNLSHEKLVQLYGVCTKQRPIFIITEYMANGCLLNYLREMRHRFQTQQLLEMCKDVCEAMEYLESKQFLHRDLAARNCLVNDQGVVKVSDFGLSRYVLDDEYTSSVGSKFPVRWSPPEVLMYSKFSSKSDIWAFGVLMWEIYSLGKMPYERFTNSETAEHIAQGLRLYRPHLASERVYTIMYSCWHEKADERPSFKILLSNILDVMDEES
Sequence of FYN (P39688 whole entry): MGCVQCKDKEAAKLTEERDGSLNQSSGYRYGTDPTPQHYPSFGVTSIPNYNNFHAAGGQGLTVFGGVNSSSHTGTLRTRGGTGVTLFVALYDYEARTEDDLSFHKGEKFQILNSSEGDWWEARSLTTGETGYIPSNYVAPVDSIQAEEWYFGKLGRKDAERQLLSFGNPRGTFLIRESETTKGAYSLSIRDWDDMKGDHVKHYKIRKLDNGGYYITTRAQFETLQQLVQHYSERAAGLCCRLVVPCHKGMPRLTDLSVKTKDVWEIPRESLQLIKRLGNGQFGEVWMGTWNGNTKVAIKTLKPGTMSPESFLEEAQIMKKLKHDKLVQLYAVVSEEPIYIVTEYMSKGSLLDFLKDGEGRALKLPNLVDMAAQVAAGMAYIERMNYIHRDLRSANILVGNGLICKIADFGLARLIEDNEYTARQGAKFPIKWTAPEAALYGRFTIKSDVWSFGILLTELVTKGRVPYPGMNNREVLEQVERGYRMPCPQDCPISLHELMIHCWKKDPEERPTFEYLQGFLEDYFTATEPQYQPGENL

For the compound `CN(C)Cc1cccc(N/C(=C2\C(=O)Nc3cc(C(N)=O)ccc32)c2ccccc2)c1` [BIX-02188], in the data set on C57BL/6J mice (C57BL/6J mice, vs vehicle), the AF inducibility entry was “did not lead to an increase in AF inducibility”.

A word on the inhibition: it is the drop in the measured response relative to a control, in per cent. Regarding `CC#CC(=O)N1CCC[C@H]1c1nc(-c2ccc(C(=O)Nc3ccccn3)cc2)c2c(N)nccn12` [acalabrutinib], the AF inducibility result in the data set on C57BL/6J mice (C57BL/6J mice, vs vehicle) was “did not cause AF”. The inhibition at 10 µM on BTK and at RIPK3 was above 90% throughout. The “% inhibition of CSK” value at CSK (10 μM, 15 minutes, mouse heart lysate, ATP probe 20 μmol/L) is reported as “do not inhibit CSK”.

As to `C=CC(=O)N1CCC[C@@H](n2nc(-c3ccc(Oc4ccccc4)cc3)c3c(N)ncnc32)C1` [ibrutinib], the “left ventricular ejection fraction” value with mice (25 mg/kg daily for 4 weeks, C57BL/6J mice, MRI) is “preserved”. In the data set with mice (setting [2]), the “atrial dilation (LA size)” value is reported as “significant atrial dilation”. Moreover, in the data set with mice (BTK^xid mice, 25 mg·kg−1·d−1 IP for 4 weeks), the “LA enlargement (LA diameter by echocardiography)” value is “LA enlargement”. The “expression of fibrosis markers fibronectin, and collagens 1α1 and 3α1” value in [1] was “increased expression”. The inhibition at 10 µM on FYN, at RIPK3, at CSK (read-out: % inhibition of CSK) and on MEK5 was above 90% each time. The “circulating interleukin-6 (IL-6)” value with IL-6 is “elevated”. Moreover, the AF inducibility entry is “significant increase in AF inducibility” in the data set with BTK^xid mice and “more inducible atrial fibrillation than vehicle injected mice” with C57BL/6J mice (C57BL/6J mice, vs vehicle). Also, the “atrial effective refractory periods” value in the data set on C57BL/6J mice (setting [2]) is on record as “prolonged”. The “inducible AF” value in the data set with C57BL/6J mice (short duration exposure, mice) is on record as “did not result in increased inducible AF”. In addition, the “circulating tumor necrosis factor α (TNFα)” value in the data set with TNFα is recorded as “elevated”.

Turning to `CN1CCN(CCOc2cc(OC3CCOCC3)c3c(Nc4c(Cl)ccc5c4OCO5)ncnc3c2)CC1` [saracatinib], in the data set with C57BL/6J mice (C57BL/6J mice, vs vehicle), the AF inducibility entry is listed as “did not result in increased AF”.
